Assay results from patent US20110135671A1, “PURINE DERIVATIVES FOR USE IN THE TREATMENT OF ALLERGIC, INFLAMMATORY AND INFECTIOUS DISEASES” (GLAXOSMITHKLINE LLC, priority 2008, published 2011).

System: Interferon-α
Experiment: Induction of Interferon-α using cryopreserved human PBMCs
Type: cell-based
Conditions: PBMC, 24 h, normalised to 1 uM resiquimod, read-out: mean pEC50 for induction of Interferon-α (converted)
Method: Assay for the Induction of Interferon-α using Cryopreserved Human Peripheral Blood Mononuclear Cells (PBMCs)
Compounds were dissolved in DMSO. Serial 2-fold dilutions with DMSO were prepared and 0.25 μl dispensed into 384-well clear Greiner polypropylene plates.
Blood samples of up to 200 ml were obtained from healthy human donors. Whole blood in 25 ml volumes was overlaid onto 15 ml Ficoll gradients in Leucosep tubes, and centrifuged at 1000 g for 20 min. Cells in the band at the plasma/histopaque interface were carefully removed and washed twice with PBS (centrifuged at 400 g for 5 min to harvest). The final pellet was resuspended in freezing medium (90% Heat-inactivated serum, 10% DMSO) to a cell concentration of 4×10^7 cells/ml. The resuspended cells were then cryopreserved (frozen) using a rate controlled freezer, and stored at −140° C. for up to 4 months.
Incubation and Assay for Interferon-α
Immediately prior to assay, vials of cryopreserved (frozen) PBMCs were thawed rapidly in a water bath at 37° C. A 1:10 dilution of the cells in trypan blue was prepared and counted. The PBMCs were then diluted in growth media [RPMI 1640 containing 10% fetal calf serum (invitrogen), Penicillin+Streptavidin (Gibco cat. # 25030-024, 1:50), L-Glutamine 2 mM, and 1000 units/ml recombinant human IFN-gamma (Preprotech catalogue #300-02)] to a density of 1×10^6 cells/ml, and 50 ul/well dispensed to 384-well clear Greiner polypropylene plates containing 0.25 μl DMSO or test compound in 0.25 μl DMSO. […] Plates were incubated for 24 h at 37° C. in 5% CO2.
A multi-isoform immunoassay was used to quantify IFN-α in PBMC supernatants. Rabbit polyclonal antibody against human IFN-α (catalogue number 31101, Stratech Scientific) was diluted 1:10000 in assay buffer (RPMI 1640 containing 10% fetal calf serum, Invitrogen) and 20 μl was added to each well of an MSD (Meso-Scale Discovery) single small-spot 384-well GAR (goat anti-rabbit antibody coated) plate. The plate was incubated for 1 h at room temperature with vigorous shaking. Following three washes with PBS, 20 μl of cell supernatant were added to each well of the plate. The plate was then incubated for 1 h at room temperature with vigorous shaking. A pair of monoclonal antibodies to IFN-α (catalogue numbers 21100 and 21112, Stratech Scientific) were labelled with sulfo-TAG (MSD), diluted 1:1000 in assay buffer and 20 μl added to each well of the plate. The plate was further incubated for 1 h at room temperature with vigorous shaking. Following three washes with PBS, 30 μl of ×2 T buffer (MSD) was added to each well and the plate was read on an MSD Sector 6000 plate reader.
Data were normalised to internal plate controls of 1 uM resiquimod (n=16) and DMSO (n=16). pEC50 values were derived by 4-parameter curve fit with IRLS in ActivityBase, from 11-point, two-fold serial dilution of test compounds.

Row | Structure (SMILES) | EC50
1 | CCCCNc1nc(N)c2[nH]c(=O)n(CCCCN3CCN(CCCC)CC3)c2n1 [Example 39, 6-Amino-2-(butylamino)-9-[4-(4-butyl-1-piperazinyl)butyl]-7,9-dihydro-8H-purin-8-one] | < 3.16 µM
2 | CCCCNc1nc(N)c2[nH]c(=O)n(CCCCN3CCN(CC(C)C)CC3)c2n1 [Example 40, 6-Amino-2-(butylamino)-9-{4-[4-(2-methylpropyl)-1-piperazinyl]butyl}-7,9-dihydro-8H-purin-8-one] | < 3.16 µM
3 | CCCCNc1nc(N)c2[nH]c(=O)n(CCCCN3CCN(CC4CC4)CC3)c2n1 [Example 42, 6-Amino-2-(butylamino)-9-{4-[4-(cyclopropylmethyl)-1-piperazinyl]butyl}-7,9-dihydro-8H-purin-8-one] | < 3.16 µM
4 | CCCCNc1nc(N)c2[nH]c(=O)n(CCCCN3CCN(C4CCCC4)CC3)c2n1 [Example 43, 6-Amino-2-(butylamino)-9-[4-(4-cyclopentyl-1-piperazinyl)butyl]-7,9-dihydro-8H-purin-8-one] | < 3.16 µM
5 | CCCCNc1nc(N)c2[nH]c(=O)n(CCCCN3CCN(C4CCCCC4)CC3)c2n1 [Example 44, 6-Amino-2-(butylamino)-9-[4-(4-cyclohexyl-1-piperazinyl)butyl]-7,9-dihydro-8H-purin-8-one] | < 3.16 µM
6 | CCCCOc1nc(N)c2[nH]c(=O)n(CCCCCN3CCNCC3)c2n1 [Example 45, 6-Amino-2-(butyloxy)-9-[5-(1-piperazinyl)pentyl]-7,9-dihydro-8H-purin-8-one] | < 3.16 µM
7 | CCCCOc1nc(N)c2[nH]c(=O)n(CCCCCN3CCN(CC)CC3)c2n1 [Example 47, 6-Amino-2-(butyloxy)-9-[5-(4-ethyl-1-piperazinyl)pentyl]-7,9-dihydro-8H-purin-8-one] | < 3.16 µM
8 | CCC[C@H](C)Oc1nc(N)c2[nH]c(=O)n(CCCCCN3CCNCC3)c2n1 [Example 49, 6-Amino-2-{[(1S)-1-methylbutyl]oxy}-9-[5-(1-piperazinyl)pentyl]-7,9-dihydro-8H-purin-8-one] | < 3.16 µM
9 | CCC[C@H](C)Oc1nc(N)c2[nH]c(=O)n(CCCCCN3CCN(C)CC3)c2n1 [Example 50, 6-Amino-2-{[(1S)-1-methylbutyl]oxy}-9-[5-(4-methyl-1-piperazinyl)pentyl]-7,9-dihydro-8H-purin-8-one] | < 3.16 µM
10 | CCC[C@H](C)Oc1nc(N)c2[nH]c(=O)n(CCCCCN3CCN(CC)CC3)c2n1 [Example 51, 6-Amino-9-[5-(4-ethyl-1-piperazinyl)pentyl]-2-{[(1S)-1-methylbutyl]oxy}-7,9-dihydro-8H-purin-8-one] | < 3.16 µM
11 | CCC[C@H](C)Oc1nc(N)c2[nH]c(=O)n(CCCCCN3CCN(C(C)(C)C)CC3)c2n1 [Example 53, 6-Amino-9-{5-[4-(1,1-dimethylethyl)-1-piperazinyl]pentyl}-2-{[(1S)-1-methylbutyl]oxy}-7,9-dihydro-8H-purin-8-one] | < 3.16 µM
12 | CCCCOc1nc(N)c2[nH]c(=O)n(CCCCCCN3CCN(C)CC3)c2n1 [Example 55, 6-Amino-2-(butyloxy)-9-[6-(4-methyl-1-piperazinyl)hexyl]-7,9-dihydro-8H-purin-8-one] | < 3.16 µM
13 | CCCCOc1nc(N)c2[nH]c(=O)n(CCCCCCN3CCN(CC)CC3)c2n1 [Example 56, 6-Amino-2-(butyloxy)-9-[6-(4-ethyl-1-piperazinyl)hexyl]-7,9-dihydro-8H-purin-8-one] | < 3.16 µM
14 | CCCCOc1nc(N)c2[nH]c(=O)n(CCCCCN3CCN(CCCC)CC3)c2n1 [Example 59, 6-Amino-2-(butyloxy)-9-[5-(4-butyl-1-piperazinyl)pentyl]-7,9-dihydro-8H-purin-8-one] | < 3.16 µM
15 | CCCCCN1CCN(CCCCCn2c(=O)[nH]c3c(N)nc(OCCCC)nc32)CC1 [Example 60, 6-Amino-2-(butyloxy)-9-[5-(4-pentyl-1-piperazinyl)pentyl]-7,9-dihydro-8H-purin-8-one] | < 3.16 µM
16 | CCCCOc1nc(N)c2[nH]c(=O)n(CCCCCN3CCN(C(C)(C)C)CC3)c2n1 [Example 61, 6-Amino-2-(butyloxy)-9-{5-[4-(1,1-dimethylethyl)-1-piperazinyl]pentyl}-7,9-dihydro-8H-purin-8-one] | < 3.16 µM
17 | CCCCOc1nc(N)c2[nH]c(=O)n(CCCCCN3CCN(C4CCCC4)CC3)c2n1 [Example 63, 6-Amino-2-(butyloxy)-9-[5-(4-cyclopentyl-1-piperazinyl)pentyl]-7,9-dihydro-8H-purin-8-one] | < 3.16 µM
18 | CCCCOc1nc(N)c2[nH]c(=O)n(CCCCCN3CCN(C4CCCCC4)CC3)c2n1 [Example 64, 6-Amino-2-(butyloxy)-9-[5-(4-cyclohexyl-1-piperazinyl)pentyl]-7,9-dihydro-8H-purin-8-one] | < 3.16 µM
19 | CCCCOc1nc(N)c2[nH]c(=O)n(CCCCCN3CCN(CC4CC4)CC3)c2n1 [Example 65, 6-Amino-2-(butyloxy)-9-{5-[4-(cyclopropylmethyl)-1-piperazinyl]pentyl}-7,9-dihydro-8H-purin-8-one] | < 3.16 µM
20 | CCCCOc1nc(N)c2[nH]c(=O)n(CCCCCN3CCN(CC4CCCC4)CC3)c2n1 [Example 66, 6-Amino-2-(butyloxy)-9-{5-[4-(cyclopentylmethyl)-1-piperazinyl]pentyl}-7,9-dihydro-8H-purin-8-one] | < 3.16 µM
21 | CCCCOc1nc(N)c2[nH]c(=O)n(CCCCN3CCNCC3)c2n1 [Example 67, 6-Amino-2-(butyloxy)-9-[4-(1-piperazinyl)butyl]-7,9-dihydro-8H-purin-8-one] | < 3.16 µM
22 | CC[C@H](C)Oc1nc(N)c2[nH]c(=O)n(CCCCN3CCN(C(C)C)CC3)c2n1 [Example 68, 6-Amino-9-{4-[4-(1-methylethyl)-1-piperazinyl]butyl}-2-{[(1S)-1-methylpropyl]oxy}-7,9-dihydro-8H-purin-8-one] | < 3.16 µM
23 | CCCC[C@H](C)Oc1nc(N)c2[nH]c(=O)n(CCCCN3CCN(C(C)C)CC3)c2n1 [Example 69, 6-Amino-9-{4-[4-(1-methylethyl)-1-piperazinyl]butyl}-2-{[(1S)-1-methylpentyl]oxy}-7,9-dihydro-8H-purin-8-one] | < 3.16 µM
24 | CC(C)Oc1nc(N)c2[nH]c(=O)n(CCCCCN3CCN(C(C)C)CC3)c2n1 [Example 70, 6-Amino-2-[(1-methylethyl)oxy]-9-{5-[4-(1-methylethyl)-1-piperazinyl]pentyl}-7,9-dihydro-8H-purin-8-one] | < 3.16 µM
25 | CC(C)N1CCN(CCCCn2c(=O)[nH]c3c(N)nc(OC4CCC4)nc32)CC1 [Example 71, 6-Amino-2-(cyclobutyloxy)-9-{4-[4-(1-methylethyl)-1-piperazinyl]butyl}-7,9-dihydro-8H-purin-8-one] | < 3.16 µM
26 | CC(C)N1CCN(CCCCn2c(=O)[nH]c3c(N)nc(OC4CCCC4)nc32)CC1 [Example 72, 6-Amino-2-(cyclopentyloxy)-9-{4-[4-(1-methylethyl)-1-piperazinyl]butyl}-7,9-dihydro-8H-purin-8-one] | < 3.16 µM
27 | CC(C)N1CCN(CCCCn2c(=O)[nH]c3c(N)nc(OC4CCCCC4)nc32)CC1 [Example 73, 6-Amino-2-(cyclohexyloxy)-9-{4-[4-(1-methylethyl)-1-piperazinyl]butyl}-7,9-dihydro-8H-purin-8-one] | < 3.16 µM
28 | CCC[C@@H](C)Nc1nc(N)c2[nH]c(=O)n(CCCCN3CCN(C(C)C)CC3)c2n1 [Example 74, 6-Amino-2-{[(1R)-1-methylbutyl]amino}-9-{4-[4-(1-methylethyl)-1-piperazinyl]butyl}-7,9-dihydro-8H-purin-8-one] | < 3.16 µM
29 | CCC[C@H](C)Nc1nc(N)c2[nH]c(=O)n(CCCCN3CCN(C(C)C)CC3)c2n1 [Example 75, 6-Amino-2-{[(1S)-1-methylbutyl]amino}-9-{4-[4-(1-methylethyl)-1-piperazinyl]butyl}-7,9-dihydro-8H-purin-8-one] | < 3.16 µM
